How the values were obtained:
Experiment in all cases: relative viability (nuclei count vs DMSO), 5 days (fraction); higher = more cells survive
[1] = compound: Cc1ccc2nc(NCCN)c3ncc(C)n3c2c1 + Nc1ncn([C@H]2C[C@H](O)[C@@H](CO)O2)c(=O)n1 [Decitabine] (partner 2 µM)
Summary of the method: (§1)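 Nuclei were stained with Hoechst during a one-step fixation (final 0.05% Triton X-100, 1% formaldehyde, 1 ug/ml Hoechst) carried out 5 days after dosing, then counted on 4× images. The cells, lung cancer lines in 1536-well plates, had been dosed by pin tool the day after seeding with one drug alone or a fixed anchor-drug dose plus five library-drug doses (not always all listed) in √10 steps. Relative viability is the nuclei count in treated wells divided by that in vehicle wells, and each value is the median of duplicate plates.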

[2] = compound: Cc1ccc2nc(NCCN)c3ncc(C)n3c2c1 + CC(=O)Nc1cccc(-n2c(=O)n(C3CC3)c(=O)c3c(Nc4ccc(I)cc4F)n(C)c(=O)c(C)c32)c1 [Trametinib] (partner 0.02 µM)
Summary of the method: as §1

[3] = compound: Cc1ccc2nc(NCCN)c3ncc(C)n3c2c1 + N=C(N)NC(=N)NCCc1ccccc1 [Phenformin] (partner 250 µM)
Summary of the method: as §1

Salubrinal + Navitoclax = compound: O=C(/C=C/c1ccccc1)NC(NC(=S)Nc1cccc2cccnc12)C(Cl)(Cl)Cl [Salubrinal] + CC1(C)CCC(c2ccc(Cl)cc2)=C(CN2CCN(c3ccc(C(=O)NS(=O)(=O)c4ccc(N[C@H](CCN5CCOCC5)CSc5ccccc5)c(S(=O)(=O)C(F)(F)F)c4)cc3)CC2)C1 [Navitoclax] (partner 0.5 µM)
Summary of the method: as §1

| Cell Line | relative viability ([1]; first compound 0.04 µM) | relative viability ([1]; first compound 0.1265 µM) | relative viability ([1]; first compound 0.4 µM) | relative viability ([1]; first compound 1.265 µM) | relative viability ([1]; first compound 4 µM) | relative viability ([2]; first compound 0.04 µM) | relative viability ([2]; first compound 0.1265 µM) | relative viability ([2]; first compound 0.4 µM) | relative viability ([2]; first compound 1.265 µM) | relative viability ([2]; first compound 4 µM) | relative viability ([3]; first compound 0.04 µM) | relative viability ([3]; first compound 0.1265 µM) | relative viability ([3]; first compound 0.4 µM) | relative viability ([3]; first compound 1.265 µM) | relative viability ([3]; first compound 4 µM) | relative viability (Salubrinal + Navitoclax; first compound 0.08 µM) | relative viability (Salubrinal + Navitoclax; first compound 0.253 µM) | relative viability (Salubrinal + Navitoclax; first compound 0.8 µM) | relative viability (Salubrinal + Navitoclax; first compound 2.53 µM) | relative viability (Salubrinal + Navitoclax; first compound 8 µM) |
| --- | --- | --- | --- | --- | --- | --- | --- | --- | --- | --- | --- | --- | --- | --- | --- | --- | --- | --- | --- | --- |
| H3255 | 0.594 | 0.611 | 0.546 | 0.69 | 0.702 | 0.562 | 0.554 | 0.564 | 0.523 | 0.575 | 0.396 | 0.343 | 0.396 | 0.355 | 0.382 | 0.637 | 0.481 | 0.582 | 0.523 | 0.564 |
| NCI-H647 | 0.508 | 0.362 | 0.43 | 0.421 | 0.335 | 0.542 | 0.378 | 0.437 | 0.419 | 0.341 | 0.758 | 0.533 | 0.494 | 0.539 | 0.476 | 1.31 | 1.12 | 1.22 | 1.07 | 1.03 |
| NCI-H2023 | 0.225 | 0.227 | 0.241 | 0.256 | 0.2 | 0.595 | 0.561 | 0.661 | 0.574 | 0.32 | 0.466 | 0.409 | 0.434 | 0.437 | 0.349 | 1.05 | 0.733 | 0.96 | 1.01 | 0.932 |
| NCI-H23 | 0.312 | 0.356 | 0.321 | 0.328 | 0.34 | 0.444 | 0.391 | 0.384 | 0.426 | 0.308 | 0.797 | 0.858 | 0.704 | 0.786 | 0.754 | 1.01 | 0.722 | 0.91 | 0.759 | 1.04 |
| NCI-H520 | 0.488 | 0.466 | 0.439 | 0.529 | 0.503 | 0.75 | 0.658 | 0.753 | 0.677 | 0.621 | 0.633 | 0.573 | 0.445 | 0.517 | 0.478 | 1.16 | 1.04 | 1.32 | 1.11 | 1.18 |
| NCI-H460 | 0.479 | 0.494 | 0.5 | 0.501 | 0.434 | 0.165 | 0.146 | 0.171 | 0.197 | 0.0969 | 0.515 | 0.512 | 0.525 | 0.539 | 0.394 | 1.43 | 0.487 | 1.45 | 1.17 | 1.03 |
| EKVX | 0.335 | 0.35 | 0.345 | 0.32 | 0.28 | 0.383 | 0.365 | 0.269 | 0.261 | 0.291 | 0.25 | 0.236 | 0.241 | 0.239 | 0.248 | 0.958 | 0.983 | 0.911 | 1.08 | 1.06 |
| NCI-H1944 | 0.377 | 0.428 | 0.436 | 0.418 | 0.422 | 0.432 | 0.476 | 0.401 | 0.381 | 0.427 | 0.201 | 0.196 | 0.201 | 0.187 | 0.195 | 1.07 | 1.08 | 1.12 | 1.04 | 1.05 |
| EPLC-272H | 0.386 | 0.386 | 0.395 | 0.341 | 0.327 | 0.296 | 0.334 | 0.282 | 0.253 | 0.245 | 0.317 | 0.397 | 0.383 | 0.373 | 0.294 | 1.23 | 1.02 | 1.4 | 1.19 | 1.04 |
| NCI-H1395 | 0.616 | 0.708 | 0.713 | 0.669 | 0.607 | 0.977 | 0.983 | 0.989 | 0.828 | 0.878 | 0.45 | 0.498 | 0.412 | 0.419 | 0.46 | 1.08 | 1.26 | 1.12 | 1.06 | 1.29 |
| NCI-H2126 | 0.6 | 0.571 | 0.62 | 0.599 | 0.563 | 0.547 | 0.563 | 0.522 | 0.607 | 0.552 | 0.528 | 0.544 | 0.516 | 0.535 | 0.506 | 0.897 | 0.913 | 0.914 | 0.808 | 0.867 |
| LXF-289 | 0.388 | 0.409 | 0.365 | 0.353 | 0.423 | 0.669 | 0.629 | 0.696 | 0.645 | 0.663 | 0.528 | 0.546 | 0.543 | 0.486 | 0.524 | 0.99 | 0.898 | 1.04 | 0.943 | 0.868 |
| NCI-H2009 | 0.364 | 0.394 | 0.436 | 0.395 | 0.368 | 0.309 | 0.251 | 0.286 | 0.273 | 0.28 | 0.514 | 0.399 | 0.489 | 0.401 | 0.393 | 1.16 | 1.18 | 1.19 | 1.17 | 1.07 |
| SK-MES-1 | 0.36 | 0.462 | 0.421 | 0.445 | 0.398 | 0.545 | 0.556 | 0.539 | 0.594 | 0.573 | 0.688 | 0.624 | 0.69 | 0.65 | 0.605 | 1.39 | 1.12 | 1.33 | 1.24 | 1.12 |
| NCI-H2405 | 0.706 | 0.713 | 0.747 | 0.728 | 0.741 | 0.648 | 0.629 | 0.674 | 0.589 | 0.581 | 0.417 | 0.385 | 0.451 | 0.371 | 0.375 | 0.942 | 0.957 | 0.793 | 0.82 | 0.905 |
| NCI-H1755 | 0.716 | 0.764 | 0.681 | 0.7 | 0.723 | 0.757 | 0.809 | 0.769 | 0.8 | 0.776 | 0.661 | 0.665 | 0.581 | 0.625 | 0.583 | 1.04 | 0.983 | 0.928 | 1.05 | 0.969 |

Source: the supplement of paper PMC10307832
